Assay results published in paper PMC9144521 (Viruses, 2022).

Legend:
AdV5 = test: Anti-AdV activity assay (IFA of hexon), secondary screen, AdV5; type: cell-based, Human adenoviruses type 5; conditions: for Selective Index AdV5: CC50/EC50, Vero cells; for EC50: 48 h, IFA of hexon, 0.02 to 5 μM
AdV3 = test: Anti-AdV activity assay (IFA of hexon), secondary screen, AdV3; type: cell-based, Human adenoviruses type 3; conditions: for Selective Index AdV3: CC50/EC50, Vero cells; for EC50: 48 h, IFA of hexon, 0.02 to 5 μM
adenovirus 5 = test system: adenovirus 5; set-up: method as in ref 28, 31 = [28]; conditions: cited from earlier work
in vitro = conditions: African green monkey
Aurora A/B/C = conditions: cited from earlier work
Aurora A = test system: Aurora A; set-up: method as in ref 25 = [25]; conditions: cited from earlier work

| Compound | EC50 (AdV5; Vero cells) [nM] | EC50 (AdV3; Vero cells) [nM] | Selective Index AdV5 (AdV5) | Selective Index AdV3 (AdV3) | reported inhibition of replication of adenovirus 5 (adenovirus 5) | CC50 at 48 h (in vitro) [nM] | inhibition of AdV5 (in words) (AdV5; Vero cells) | selectivity for Aurora kinases than p38α, Tyk2, and JNK2 (Aurora A/B/C) [fold] | inhibition of AdV3 (in words) (AdV3; Vero cells) | selectivity for Aurora A than Aurora B (Aurora A) [fold] | CC50 (Vero cells) [nM] | CC50 at 48 h (in vitro; Vero cells) [nM] |
| --- | --- | --- | --- | --- | --- | --- | --- | --- | --- | --- | --- | --- |
| C=CCNC1=C2C[C@@H](C)C[C@H](OC)[C@H](O)[C@@H](C)/C=C(\C)[C@H](OC(N)=O)[C@@H](OC)/C=C\C=C(/C)C(=O)NC(=CC1=O)C2=O [17-AAG] | > 5000 | 500 | >0.46 | >9.93 | inhibit the replication of adenovirus 5 | > 5000 |  |  |  |  |  |  |
| Cc1csc(-c2nnc(Nc3ccc(Oc4ncccc4-c4ccnc(N)n4)cc3)c3ccccc23)c1 [AMG-900] | > 5000 | 20 |  | 226.12 |  | 3690 | but not AdV5 | > 10 | potently inhibits only AdV3 |  |  |  |
| Cc1cc(Nc2cc(N3CCN(C)CC3)nc(/C=C/c3ccccc3)n2)n[nH]1.O=C(O)C(O)C(O)C(=O)O [ENMD-2076 L-(+)-Tartaric acid] | 1390 | 1350 |  |  |  |  |  |  |  | 25 | 4340 |  |
| COC1(c2sc3c(N4CCOCC4)nc(-c4cnc(N)nc4)nc3c2C)COC1 [GNE-317] | 590 | 260 |  |  |  |  |  |  |  |  | > 5000 |  |
| Cl.Cl.O=S(=O)(NCCNC/C=C/c1ccc(Br)cc1)c1cccc2cnccc12 [H 89 2HCl] | > 5000 | 310 |  | >15.97 |  |  |  |  |  |  | > 5000 |  |
| O=C(/C=C\n1cnc(-c2cc(C(F)(F)F)cc(C(F)(F)F)c2)n1)N1CC(F)(F)C1 [KPT-276] | 970 | 100 | >5.13 | >50.46 |  |  |  |  |  |  | > 5000 |  |
| O=C(/C=C\n1cnc(-c2cc(C(F)(F)F)cc(C(F)(F)F)c2)n1)NNc1ccccn1 [KPT-335] | 610 | 150 | 3.14 | 12.65 | inhibit the replication of adenovirus 5 |  |  |  |  |  |  | 1900 |
| COc1cc(Nc2ncc(F)c(Nc3ccc4c(n3)NC(=O)C(C)(C)O4)n2)cc(OC)c1OC [R406] | > 5000 | 940 |  | >5.32 |  |  |  |  |  |  | > 5000 |  |
| c1cncc(CN2CCC(n3ncc4c(N5CCOCC5)nc(-c5ccc6[nH]ccc6c5)nc43)CC2)c1 [WAY-600] | 1090 | 560 | 2.86 | 5.51 |  |  |  |  |  |  | 3110 |  |

Molecules with a lower EC50 (AdV5; Vero cells), results first:

| EC50 (AdV5; Vero cells) [nM] | EC50 (AdV3; Vero cells) [nM] | Compound | Selective Index AdV5 (AdV5) | Selective Index AdV3 (AdV3) | reported inhibition of replication of adenovirus 5 (adenovirus 5) | CC50 at 48 h (in vitro) [nM] | inhibition of AdV5 (in words) (AdV5; Vero cells) | selectivity for Aurora kinases than p38α, Tyk2, and JNK2 (Aurora A/B/C) [fold] | inhibition of AdV3 (in words) (AdV3; Vero cells) | selectivity for Aurora A than Aurora B (Aurora A) [fold] | CC50 (Vero cells) [nM] | CC50 at 48 h (in vitro; Vero cells) [nM] |
| --- | --- | --- | --- | --- | --- | --- | --- | --- | --- | --- | --- | --- |
| 30 | 20 | COc1cccc(-c2cc(F)ccc2[C@H]2Cc3nc(N)nc(C)c3C(=O)N2)n1 [HSP990] | 148.47 | 205.19 |  |  |  |  |  |  | 4310 |  |
| 120 | 60 | COc1ccc(-c2cc3c(C)nc(N)nc3n([C@H]3CC[C@H](OCCO)CC3)c2=O)cn1 [PF-04691502] | >41.46 | >86.01 |  |  |  |  |  |  | > 5000 |  |
| 160 | 180 | N#Cc1c(Oc2ccc(F)c(NC(=O)Cc3cccc(C(F)(F)F)c3)c2)ccc2nc(NC(=O)C3CC3)sc12 [TAK-632] | 12.3 | 11.15 |  |  |  |  |  |  | 1990 |  |
| 80 | 30 | CCNC(=O)c1[nH]nc(-c2cc(Cl)c(O)cc2O)c1-c1ccc(OC)cc1 [VER-49009] | >60.00 | >186.00 |  |  |  |  |  |  | > 5000 |  |
| 150 | 60 | CNC(=O)Nc1ccc(-c2nc(N3CC4CCC(C3)O4)c3cnn(C4CCC5(CC4)OCCO5)c3n2)cc1 [WYE-125132] | >32.47 | >89.17 |  |  |  |  |  |  | > 5000 |  |
| 480 | 170 | CC[C@@H](C)Nc1cc(C(=O)N[C@H]2C[C@H]3CC[C@@H](C2)N3c2ccc(C(=O)C3CC3)cn2)c(C)cc1C(N)=O [XL888] | >10.33 | >29.69 |  |  |  |  |  |  | > 5000 |  |
